Measured values: patent US20100048594A1, “USE OF CYTOHESIN INHIBITORS FOR CHEMICALLY INDUCING LONGEVITY” (RHEINISCHE FRIEDRICH-WILHELMS UNIVERSITAT, priority 2006, published 2010)

Legend:
[1] = tested on: Drosophila melanogaster flies; experiment: Lifespan of adult Drosophila melanogaster flies fed with compound (Kaplan-Meier analysis); assay type: in vivo; settings: for Average Lifespan: ±margin of error
Experimental: The experiments were conducted on isogenic flies (Drosophila melanogaster) of the genotype white^1118, also called white^− or w^−, and mutants (w^1118; step^k08110/step^SH0323) (strain # 10770 from the public Bloomington Stock Center, genotype: step^k08110/CyO, URL http://flybase.bio.indiana.edu/reports/FBstOO10770.html; strain # FBst0103734 from the public Szeged Stock Center, genotype: step^SH0323/CyO, URL http://flybase.bio.indiana.edu/reports/FBst0103734.html), in which the Drosophila cytohesin steppke is mutated and therefore defective.
By crossing the two steppke alleles k08110 and SH0323 eight times with whites flies, an isogenic genetic background is produced, which permits a comparison of the lifespans between the genotypes of the type white^1118 and the mutants (w^1118; step^k08110/step^SH0323). The average lifespan of the wild type was approximately 25 days, while that of the mutants (w^1118; step^k08110/step^SH0323) was approximately 30 days.
To produce the special food, 32.5 g autolysed yeast (Fluka (Catalog No. 73145)) and 10 g agar (Difco (Catalog No. 281230)) were mixed with 300 ml water (demineralized, Roth (Catalog No. 3175)) and autoclaved at 120° C. for 20 minutes. The solution was cooled to 60° C., and 32.5 g α-D(+)-glucose monohydrate (Roth (Catalog No. 6887)) were added under stirring. 15 ml 10% (w/v) p-hydroxybenzoic acid methylester (Sigma (Catalog No. H3647)) solution dissolved in 70% (v/v) ethanol (Roth (Catalog No. 9065)) and 1.35 ml dimethylsulfoxide (DMSO, Roth (Catalog No. A994)) were then added. Water was then added to this basic solution to a volume of 450 ml, which was then held at a temperature of 60° C. For the control food, 50 ml of a 0.7% (v/v) DMSO solution in water were produced. For the food containing the compounds according to formulas (9) or (25), 0.2 ml of a 25 mM solution of the compounds according to formula (9) or (25) in 100% DMSO were added to 49.8 ml of a 0.3012% DMSO solution in water.
These 50 ml of the control solutions and the solutions containing the compounds according to formula (9) or (25) were each mixed with 450 ml of the basic solution, and were placed in 4 ml amounts in polystyrene containers (height 9.5 cm, diameter 2.4 cm, sealed with cotton wadding) to maintain the flies. After 24 hours, the cooled containers were sealed with cotton wadding and stored at 4° C.
The final concentration of the food components in the control food was 6.5% (w/v) autolysed yeast, 6.5% (w/v) α-D(+)-glucose monohydrate, 2% (w/v) agar, 0.3% (w/v) p-hydroxybenzoic acid methylester, 2.1% ethanol (v/v), 0.34% (v/v) DMSO.
The final concentration of the food components in the food containing the compound according to formula (9) was 6.5% (w/v) autolysed yeast, 6.5% (w/v) α-D(+)-glucose monohydrate, 2% (w/v) agar, 0.3% (w/v) p-hydroxybenzoic acid methylester, 2.1% ethanol (v/v), 0.34% (v/v) DMSO, 10 μM compound according to formula (9).
The final concentration of the food components in the food containing the compound according to formula (25) was 6.5% (w/v) autolysed yeast, 6.5% (w/v) α-D(+)-glucose monohydrate, 2% (w/v) agar, 0.3% (w/v) p-hydroxybenzoic acid methylester, 2.1% ethanol (v/v), 0.34% (v/v) DMSO, 10 μM compound according to formula (25).
The larvae were maintained on standard fly food containing 1.1% (w/v) brewer's yeast (“Gewürzmühle Brecht” company), 5.43% (w/v) cornmeal, 0.53% (w/v) filamentous agar (“Gewürzmühle Brecht” company), 6.6% (v/v) sugar beet syrup (Grafschafter), 1.3% (v/v) ethanol (Roth company), 0.13% (w/v) p-hydroxybenzoic acid methylester (Sigma).
24 hours after emergence of the imagines, the adult flies, females and males were separated under a brief CO2 anesthetization lasting less than 2 minutes. During the 24 hours after emergence, the animals were fed using standard fly food. […]

Akt = experiment: Insulin-stimulated phosphorylation of Akt in mouse liver after feeding (immunoblot); assay type: in vivo, C57BL/6 mice; settings: food with 0.9 μmol/g compound for 3 days, 40 μg insulin i.p.
From the text: C57BL/6 mice (Charles River Laboratories) that had been kept in a pathogen-free animal facility, maintaining a 12-hour light/dark cycle, were used. The animals received standard mouse food (19% protein, 3.3% fat, 41.3% carbohydrates; ssniff Spezialdiäten GmbH) ad libitum. Male animals between the ages of 8 and 12 weeks were used.
A group of 6 C57BL/6 mice received standard mouse food mixed with 0.9 μmol/g of the compound according to formula (9) for a period of 3 days, while a control group of 6 animals received standard mouse food. The animals were then injected intraperitoneally with 100 μl normal saline solution (control group) or saline solution with 40 μg recombinant human insulin (Sigma). After 10 minutes the mice were anesthetized, the livers were removed and were lysed in lysate buffer (20 mM Tris-Cl, pH 7.5, 150 mM NaCl, 1 mM EDTA, 1 mM EGTA, 2.5 mM sodium pyrophosphate, 1 mM β-glycerophosphate, 1 mM sodium vanadate, 1% Triton X-100) and protease inhibitor mix HP (Serva).
Further, standardized quantities of protein were separated out using SDS-PAGE, and this protein was identified via immunoblotting, after being transferred to nitrocellulose membranes, with an antibody, against the phosphorylated protein Akt, pAkt (Thr308) (cell signaling). Visualization and evaluation were performed as described in Example 2.

Q: How did the “increase in average lifespan as compared with the untreated control animals” value ([1]; control animals (w^1118), 10 μM compound in food, P<0.05) turn out when COc1nc(-c2ccc3c(c2)OCO3)n(-c2ccc(NC(=O)CSc3ccccc3)cc2)n1 [Compound (9)] was run?
A: 11.5%

Q: And the “Average Lifespan” value ([1]; genotype w^1118, female flies, 10 μM compound in food)?
A: 28.1 (±1.0) Days

Q: What about the “Average Lifespan” value ([1]; genotype w^1118, step^k08110/step^SH0323 mutants, female flies, 10 μM compound in food) of the same compound?
A: 34.6 (±0.8) Days

Q: What about the “longer lifespan of treated mutants than untreated control animals” value ([1]; steppke mutants fed 10 μM compound versus untreated w^1118) of the same compound?
A: 37.3%

Q: And the “increase in the average lifespan of mutants by feeding” value ([1]; steppke mutants, 10 μM compound in food, versus untreated mutants, P<0.001)?
A: 15.3%

Q: And the “inhibition of the phosphorylation of the protein Akt stimulated by insulin” value (Akt)?
A: approximately 40%
